According to the supplement of paper PMC13380429:

How the values were obtained:
Settings in all cases: 72 h
Caco-2 [1] = assay: cell viability relative to DMSO; higher = less toxic
Calu-3 [2] = assay: as above
HepG2 [3] = assay: as above
U2OS [4] = assay: as above
Vero E6 [5] = assay: as above
Caco-2 [6] = assay: relative viability EC50 (midpoint between 100% and the lowest measured viability); higher = less toxic
Calu-3 [7] = assay: as above
HepG2 [8] = assay: as above
Vero E6 [9] = assay: as above
Caco-2 [10] = assay: drug sensitivity score (DSS) for viability; higher = more toxic; extreme values may be limits of the assay
Calu-3 [11] = assay: as above
HepG2 [12] = assay: as above
U2OS [13] = assay: as above
Vero E6 [14] = assay: as above
U2OS [15] = assay: relative viability EC50 (midpoint between 100% and the lowest measured viability); higher = less toxic

| SMILES | cell viability (Caco-2 [1]; 1 nM) | cell viability (Caco-2 [1]; 10 nM) | cell viability (Caco-2 [1]; 100 nM) | cell viability (Caco-2 [1]; 1000 nM) | cell viability (Caco-2 [1]; 10000 nM) | cell viability (Calu-3 [2]; 1 nM) | cell viability (Calu-3 [2]; 10 nM) | cell viability (Calu-3 [2]; 100 nM) | cell viability (Calu-3 [2]; 1000 nM) | cell viability (Calu-3 [2]; 10000 nM) | cell viability (HepG2 [3]; 1 nM) | cell viability (HepG2 [3]; 10 nM) | cell viability (HepG2 [3]; 100 nM) | cell viability (HepG2 [3]; 1000 nM) | cell viability (HepG2 [3]; 10000 nM) | cell viability (U2OS [4]; 1 nM) | cell viability (U2OS [4]; 10 nM) | cell viability (U2OS [4]; 100 nM) | cell viability (U2OS [4]; 1000 nM) | cell viability (U2OS [4]; 10000 nM) | cell viability (Vero E6 [5]; 1 nM) | cell viability (Vero E6 [5]; 10 nM) | cell viability (Vero E6 [5]; 100 nM) | cell viability (Vero E6 [5]; 1000 nM) | cell viability (Vero E6 [5]; 10000 nM) | relative viability EC50 (Caco-2 [6]) | relative viability EC50 (Calu-3 [7]) | relative viability EC50 (HepG2 [8]) | relative viability EC50 (Vero E6 [9]) | drug sensitivity score (Caco-2 [10]) | drug sensitivity score (Calu-3 [11]) | drug sensitivity score (HepG2 [12]) | drug sensitivity score (U2OS [13]) | drug sensitivity score (Vero E6 [14]) | relative viability EC50 (U2OS [15]) |
| --- | --- | --- | --- | --- | --- | --- | --- | --- | --- | --- | --- | --- | --- | --- | --- | --- | --- | --- | --- | --- | --- | --- | --- | --- | --- | --- | --- | --- | --- | --- | --- | --- | --- | --- | --- |
| Fc1ccccc1CNCc1ccc(-c2ccnc3[nH]ccc23)cc1 [OXA-06] | 91.3% | 103% | 91.5% | 101% | 90.2% | 111% | 106% | 100% | 139% | 139% | 105% | 90.4% | 108% | 107% | 86.9% | 98.6% | 102% | 96.8% | 97.2% | 69.8% | 103% | 95.6% | 97.3% | 97.6% | 85.4% | > 10 µM | > 10 µM | > 10 µM | > 10 µM | 0 | 0 | 0 | 1.8 | 0.4 |  |
| CN(C)C(=N)NC(=N)N [metformin] | 106% | 95.7% | 90.2% | 104% | 109% | 103% | 103% | 85.6% | 101% | 89.1% | 93.4% | 96.7% | 97.2% | 94.3% | 93% |  |  |  |  |  | 93.6% | 102% | 103% | 103% | 102% | > 10 µM | > 10 µM | > 10 µM | > 10 µM | 0 | 0 | 0 |  | 0 |  |
| Oc1c(CN2CCCC2)cc(COCc2ccccc2)c2cccnc12 [UC-112] | 92.2% | 95.9% | 99.1% | 73% | 3.6% | 97.7% | 94.8% | 108% | 107% | 69.5% | 97.5% | 94.5% | 96.2% | 81.6% | 16.6% | 97.6% | 91.1% | 94% | 88.9% | 43.1% | 97.8% | 95.3% | 94% | 51.7% | 6.8% | 1.46 µM |  | 1.66 µM | 0.927 µM | 9.4 | 1 | 7.5 | 4.9 | 10.9 | 1.76 µM |
| C[C@H](Nc1cc2c(-c3ccc4c(c3)OCO4)noc2cn1)c1ccccc1 [TC-S-7005] | 96.5% | 105% | 107% | 101% | 97.9% | 106% | 98% | 105% | 97.2% | 107% | 106% | 120% | 100% | 91.6% | 99% |  |  |  |  |  | 97.4% | 96.2% | 98.8% | 90.5% | 108% | > 10 µM | > 10 µM | > 10 µM | > 10 µM | 0 | 0 | 0 |  | 0 |  |
